Patent US5198552A, “Indole derivative having antiviral, interferon-inducing and immunomodulatory effects” (priority 1991, dated 1993)
Entries after “also recorded” stand apart in the source; their conditions may differ. Where two headings read alike, the source gives them in different places.

Legend:
[1] = Maximum tolerable concentration for chick embryo fibroblasts; type: cell-based; conditions: chicken
[2] = Physical properties of the compound (heating, solubility, hygroscopicity, pH of solution); type: physicochemical
Method: The compound according to the invention is a crystalline powder, having a colour from white with tints of green-yellow to light-yellow with green hues; a bitter in taste, odourless. The melting point of the compound is not characteristic.
The solution containing 1 g of the compound in 1450 ml of water at 25° C. has pH of 4.37 (potentiometrically).

lymphocytes = type: in vivo, human
[3] = Long-term per os toxicity, guinea pigs; type: in vivo; conditions: per os 100 to 125 mg/kg over 3 months
[4] = clinical trials
[5] = Long-term per os toxicity, rabbits; type: in vivo; conditions: per os 50 mg/kg during 2 months
stem cells = test: Inactivation of stem cells with allogenic lymphocytes (graft versus host, spleen endocolonies); type: in vivo, mice
influenza A/B viruses [6] = test: Medicinal effect on experimental influenzal pneumonia of mice induced by influenza A/B viruses; type: in vivo; conditions: hydrochloride monohydrate
[7] = Allergizing effect, guinea pigs; type: in vivo; conditions: subcutaneous injections and repeated skin applications
interferon [8] = test: Interferon induction in mouse blood serum; type: in vivo, mice
antibody-producing cells = test: Antibody-producing cells in the spleen of mice immunized with sheep erythrocytes; type: in vivo; design: immune response against the control: concentration or dose not given beside the values
influenza A/B viruses [9] = type: cell-based
[10] = test system: influenza A virus (Bethezda) 63 (H2 N2), A (Aichi) (H3 N2); test: Preventive action in mouse influenzal pneumonia; type: in vivo, mice; conditions: for The decrease of lethality: P <0.01; for Lethality: absolute animal number: dead/total
Method: Its preventive effect was studied on a mouse influenzal pneumonia induced by infecting the animals intranasally with influenza A virus (Bethezda) 63 (H2 N2), A (Aichi) (H3 N2) and on a generalized mouse herpes, induced by intranasal infection of them with herpes simplex virus from antigen-type I L2 -strain.
A single administration of the preparation per os in the dose of 30 mg/kg 24 hours prior to infection prevents the death of 40% of animals suffering from a generalized herpetic infection.

interferon [11] = type: cell-based, hen; conditions: 20 µg/ml
[12] = Localized irritant action in oral administration (hystological tests); type: in vivo
influenza viruses = test: Virucidal action on influenza viruses
[13] = Acute toxicity, single oral administration, mice; conditions: mouse, in vivo
[14] = Long-term per os toxicity, dogs; type: in vivo; conditions: per os 25 mg/kg over 6 months
interferon [15] = test: Interferon induction in human blood serum; type: in vivo
[16] = Prolonged administration to animals; type: in vivo
sarcoma-45 = test: Development of grafted sarcoma-45; type: in vivo, rats; conditions: for Sarcoma growth: 125 mg/kg daily during 5 days, p < 0.05
Description: Control animals were given only a starch solution. The dynamic development of the tumor was monitored by intravital measurements of its mass.

[17] = Allergizing effect, rabbits; type: in vivo; conditions: subcutaneous injections and repeated skin applications
[18] = Effect on thermal skin lesion; conditions: in vivo
influenza A/B virus = test: Clinical trial against influenza A/B virus infection; type: in vivo, human; conditions: hydrochloride monohydrate
Method: The clinical checking of the preparation was performed in comparison to control groups o patients which were taken a symptomatic treatment.

[19] = single 100 mg and 300 mg daily per os
[20] = 31.2 mg/kg per os 24 and 6 hours before infecting
[21] = 62.5 mg/kg per os 24 and 6 hours before infecting
[22] = 125 mg/kg per os 24 and 6 hours before infecting
[23] = patients with influenza virus infection

SMILES: CCOC(=O)c1c(CSc2ccccc2)n(C)c2cc(Br)c(O)c(CN(C)C)c12.Cl.O [preparation of the invention, ethyl 6-bromo-5-hydroxy-4-dimethylaminomethyl-1-methyl-2-phenylthiomethylindole-3-carboxylate hydrochloride monohydrate]
- MNTC [1]: 20 µg/mL
- hygroscopicity [2]: non-hydroscopic
- pH of solution ([2]; 1 g of the compound in 1450 ml of water at 25° C., potentiometrically): 4.37
- behaviour when heated ([2]; heated for 3 hours at 110° to 120° C.): looses the molecule of H2 O
- solubility in water, methanol, ethanol ([2]; water, methanol, ethanol): poorly soluble
- bonding receptors with the outer lymphocyte membrane (lymphocytes; [19]): leads to changes in bonding receptors with the outer lymphocyte membrane
- counts of T-populations (lymphocytes; [19]): fails to change the counts of T-populations
- persistence of changes in bonding receptors (lymphocytes; time of observation): 14 days
- effect of vaccination on the nature of changes of bonding receptors (lymphocytes; vaccination 24 hours after administering): no effect on the nature of changes of bonding receptors
- pathological changes [3]: did not cause any pathological changes
- toxicity / tolerability in patients [4]: non-toxic, is well tolerated by patients
- pathological changes [5]: did not cause any pathological changes
- The counts of spleen endocolonies (M ± m) (stem cells; 1.25 × 10^6 lymphocytes): 2.5 ± 0.4
- The counts of spleen endocolonies (M ± m) (stem cells; 2.5 × 10^6 lymphocytes): 1.6 ± 0.2
- The counts of spleen endocolonies (M ± m) (stem cells; 5.0 × 10^6 lymphocytes): 0.3 ± 0.1
- effect on yield of spleen colonies under graft versus host conditions (stem cells; preparation 100 mg per 1 kg orally, levamisole 5 mg per 1 kg, hydrochloride monohydrate): reduces both observed deviations as compared to control values if the concentration of introduced cells is not the highest; also recorded: normalizes the proliferative activity of target cells and their ability of producing a vital colony
- medicinal (chemotherapeutical) effect on influenzal pneumonia (influenza A/B viruses [6]): shows a pronounced chemotherapeutical effect; also recorded: Exerts a medicinal effect
- allergizing action [7]: did not exert an allergizing action
- interferon induction on repeated administering (interferon [8]; mice, repeated administering): a depressed reactivity state condition occurs in the animals
- Interferon titer (interferon [8]; per os, 62.5 mg/kg, after 16 h): 320-640 U/ml
- Interferon titer (interferon [8]; per os, 62.5 mg/kg, after 24 h): 640 U/ml
- Interferon titer (interferon [8]; per os, 62.5 mg/kg, after 48 h): 160 U/ml
- Interferon titer (interferon [8]; per os, 62.5 mg/kg, after 72 h): 40 U/ml
- Interferon titer (interferon [8]; per os, 125 mg/kg, after 16 h): 640 U/ml
- Interferon titer (interferon [8]; per os, 125 mg/kg, after 24 h): 320-640 U/ml
- Interferon titer (interferon [8]; per os, 125 mg/kg, after 48 h): 640 U/ml
- Interferon titer (interferon [8]; per os, 125 mg/kg, after 72 h): 160 U/ml
- Interferon titer (interferon [8]; per os, 250 mg/kg, after 16 h): 320-540 U/ml
- Interferon titer (interferon [8]; per os, 250 mg/kg, after 24 h): 640-1280 U/ml
- Interferon titer (interferon [8]; per os, 250 mg/kg, after 48 h): 320 U/ml
- Interferon titer (interferon [8]; per os, 250 mg/kg, after 72 h): 160 U/ml
- high interferon titers in mouse blood serum (interferon [8]; per os, 250 to 62.5 mg/kg, 16 hours, persisted up to 48 hours): 640 U/ml
- immunopotentiating effect on tumor-carrier animals (antibody-producing cells; 7-17 day of tumor development, single (3 days prior to immunization) or 5-times daily): immunopotentiating effect on tumor-carrier animals
- Antibody-producing cells in spleen (% of control) (antibody-producing cells; intact mice, a single use): 246 ± 6.0%
- Antibody-producing cells in spleen (% of control) (antibody-producing cells; intact mice, during 3 days, daily): 141 ± 13%
- Antibody-producing cells in spleen (% of control) (antibody-producing cells; intact mice, during 5 days, daily): 192 ± 14.0%
- immunostimulating effect on irradiated animals (antibody-producing cells; irradiated animals): pronounced immunostimulating effect
- immune response against the control (antibody-producing cells; irradiated animals, administered 3 days prior to irradiation): 230%
- stimulation of antibody genesis, compared with reference standards (antibody-producing cells; mice, intact and irradiated): superior over reference standards--levamisole and a double-stranded RF2 phage RNA
- Antibody-producing cells in spleen (% of control) (antibody-producing cells; totally irradiated (2 Gr.), 5 times in 3 days): 96 ± 20.0%
- Antibody-producing cells in spleen (% of control) (antibody-producing cells; totally irradiated (2 Gr.), a single use): 230 ± 12.0%
- Antibody-producing cells in spleen (% of control) (antibody-producing cells; totally irradiated (2 Gr.), during 3 days, daily): 129 ± 19%
- Antibody-producing cells in spleen (% of control) (antibody-producing cells; totally irradiated (2 Gr.), during 5 days, daily): 181 ± 11.3%
- immunopotentiating effect on totally irradiated tumor-carrier animals (antibody-producing cells; totally irradiated tumor-carriers): pronounced immunopotentiating effect
- Antibody-producing cells in spleen (% of control) (antibody-producing cells; totally irradiated tumor-carriers (2 Gr.), 5 times in 3 days): 250 ± 21.5%
- Antibody-producing cells in spleen (% of control) (antibody-producing cells; totally irradiated tumor-carriers (2 Gr.), during 3 days, daily): 121 ± 25%
- Antibody-producing cells in spleen (% of control) (antibody-producing cells; totally irradiated tumor-carriers (2 Gr.), during 5 days, daily): 128 ± 28.5%
- Antibody-producing cells in spleen (% of control) (antibody-producing cells; tumor-carriers, 5 times in 3 days): 110 ± 11.0%
- Antibody-producing cells in spleen (% of control) (antibody-producing cells; tumor-carriers, a single use): 211 ± 10.0%
- Antibody-producing cells in spleen (% of control) (antibody-producing cells; tumor-carriers, during 3 days, daily): 99 ± 19%
- inhibition of influenza A/B virus reproduction / chemotherapeutical effect (influenza A/B viruses [9]; hydrochloride monohydrate): shows a pronounced chemotherapeutical effect; also recorded: Inhibits the reproduction
- stage at which the virus-inhibiting effect is expressed (influenza A/B viruses [9]; single-stage infection, 5 μm/ml, reducing infectivity titer and suppressing plague-forming activity): early stages of influenza viruses reproduction in cells: adsorption, penetration and probably deproteinization
- Lethality [10, 20]: 30%
- The decrease of lethality [10, 20]: 40%
- Lethality: absolute animal number [10, 20]: 12/40
- lowering of lethality as compared to control ([10]; 31.2 mg/kg to 125 mg/kg per os 24 and 6 hours before infecting): 40-50%
- Lethality [10, 21]: 20%
- The decrease of lethality [10, 21]: 50%
- Lethality: absolute animal number [10, 21]: 8/40
- Lethality [10, 22]: 20%
- The decrease of lethality [10, 22]: 50%
- Lethality: absolute animal number [10, 22]: 8/40
- Interferon titer (interferon [11]; 8 hours): 640-1280 U/ml
- maximum interferon titer (interferon [11]; 24 hours): 2560 U/ml
- Interferon titer (interferon [11]; by 48 hours): 320 U/ml
- localized irritant action [12]: no localized irritant action
- virucidal action on influenza viruses (influenza viruses): No virucidal action
- LD50 [13]: 340 mg/kg
- pathological changes [14]: did not cause any pathological changes
- volunteers with interferon induction (interferon [15]; 3-times administration (300 mg), all 12): 100%
- Interferon titer (interferon [15]; 3 times per day (300 mg)): 160-320 U/ml
- The number of positive reactions (interferon [15]; 3 times per day (300 mg), 12 men): 12
- The number of positive reactions (interferon [15]; 6 times per day during 2 days (600 mg), 12 men): 12
- Interferon titer (interferon [15]; during 2 days (600 mg)): 40-80 U/ml
- development of hyporeactivity on increase in dose and duration (interferon [15]; increase in dose and duration of administration): development of hyporeactivity in human beings
- Interferon titer (interferon [15]; single administration (100 mg)): 40-80 U/ml
- The number of positive reactions (interferon [15]; single administration per day (100 mg), 13 men): 8
- volunteers with interferon induction (interferon [15]; single per os 100 mg, 8 out of 13): 61.5%
- alternations in parenchymatous organs [16]: may cause in animals the development of non-specific degenerative alternations in parenchymatous organs
- Sarcoma growth (sarcoma-45; 1 month 10 days after grafting): 21.0 ± 3.9 cm^3
- Sarcoma growth (sarcoma-45; 1 month 16 days after grafting): 38.0 ± 7.5 cm^3
- Sarcoma growth (sarcoma-45; 1 month after grafting): 8.2 ± 1.4 cm^3
- Sarcoma growth (sarcoma-45; 2 months after grafting): 39.9 ± 9.7 cm^3
- effect on development of the tumor (sarcoma-45; 12 month period of observation, hydrochloride monohydrate): inhibition of the development of tumor was found; also recorded: inhibitory effect on the development of a massive tumor
- allergizing action [17]: did not exert an allergizing action
- effect on a thermal skin lesion [18]: exert a thermoprotective action and reduce a thermal skin lesion
- therapeutical efficacy against influenza A/B virus infection (influenza A/B virus; human, in vivo, po): has the therapeutical effect on influenza A/B virus infections; also recorded: shortening the febrile period, intoxication and catarrhal conditions as well as by shortening the illness duration
- frequency of chronic disease exacerbations (influenza A/B virus; [23]): considerably decreases the frequency of chronic disease exacerbations; also recorded: decreased considerably the frequency of chronic disease exacerbations
- postinfluenzal complications (influenza A/B virus; [23]): prevents from post-influenzal complications; also recorded: prevented the development of postinfluenzal complications
